Test results reported in PubChem BioAssay AID248 (DTP/NCI, 2004).
Several values for one entry are separate records, joined by “and”; a condition that tells them apart may be missing. Equal values may be shown once. Toxic doses and inconclusive results are not listed. Cut-off read from the data, not from the text of the source: active = T/C of 150% or more; inactive = T/C below 125%.

Tested on: L1210 leukemia ip in BDF1 mice, survival T/C
Assay: NCI In Vivo Anticancer Drug Screen. Data for tumor model L1210 Leukemia (intraperitoneal) in B6D2F1 (BDF1) mice
Details: endpoint: mean survival time, higher = longer survival
Procedure, shortened: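 Read-out is survival time, reported as the treated-group measurement over the vehicle-control measurement.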

[1] = dose: 100.0 mg/kg/injection, schedule: Q04DX003 (ip), vehicle: Klucel (hydroxypropylcellulose) (HPC)
[2] = dose: 200.0 mg/kg/injection, schedule: Q04DX003 (ip), vehicle: Klucel (hydroxypropylcellulose) (HPC)
[3] = dose: 400.0 mg/kg/injection, schedule: Q04DX003 (ip), vehicle: Klucel (hydroxypropylcellulose) (HPC)
[4] = dose: 100.0 mg/kg/injection, schedule: Q01DX009 (ip), vehicle: Klucel (hydroxypropylcellulose) (HPC)
[5] = dose: 200.0 mg/kg/injection, schedule: Q01DX009 (ip), vehicle: Klucel (hydroxypropylcellulose) (HPC)
[6] = dose: 400.0 mg/kg/injection, schedule: Q01DX009 (ip), vehicle: Klucel (hydroxypropylcellulose) (HPC)
[7] = dose: 100.0 mg/kg/injection, schedule: Q04DX003 (ip), vehicle: saline
[8] = dose: 200.0 mg/kg/injection, schedule: Q04DX003 (ip), vehicle: saline
[9] = dose: 400.0 mg/kg/injection, schedule: Q04DX003 (ip), vehicle: saline
[10] = dose: 50.0 mg/kg/injection, schedule: Q01DX001 (ip), vehicle: saline
[11] = dose: 100.0 mg/kg/injection, schedule: Q01DX001 (ip), vehicle: saline
[12] = dose: 200.0 mg/kg/injection, schedule: Q01DX001 (ip), vehicle: saline
[13] = dose: 100.0 mg/kg/injection, schedule: Q01DX009 (ip), vehicle: saline with Tween-80
[14] = dose: 200.0 mg/kg/injection, schedule: Q01DX009 (ip), vehicle: saline with Tween-80
[15] = dose: 400.0 mg/kg/injection, schedule: Q01DX009 (ip), vehicle: saline with Tween-80
[16] = dose: 100.0 mg/kg/injection, schedule: Q04DX002 (ip), vehicle: Klucel (hydroxypropylcellulose) (HPC)
[17] = dose: 200.0 mg/kg/injection, schedule: Q04DX002 (ip), vehicle: Klucel (hydroxypropylcellulose) (HPC)
[18] = dose: 400.0 mg/kg/injection, schedule: Q04DX002 (ip), vehicle: Klucel (hydroxypropylcellulose) (HPC)
[19] = dose: 50.0 mg/kg/injection, schedule: Q04DX003 (ip), vehicle: Klucel (hydroxypropylcellulose) (HPC)
[20] = dose: 400.0 mg/kg/injection, schedule: Q01DX001 (ip), vehicle: saline
[21] = dose: 100.0 mg/kg/injection, schedule: Q04DX003 (ip), vehicle: saline with Tween-80
[22] = dose: 200.0 mg/kg/injection, schedule: Q04DX003 (ip), vehicle: saline with Tween-80
[23] = dose: 400.0 mg/kg/injection, schedule: Q04DX003 (ip), vehicle: saline with Tween-80

Measured: T/C

CC1(C)OB(C(Br)(B2OC(C)(C)C(C)(C)O2)B2OC(C)(C)C(C)(C)O2)OC1(C)C
inactive: dose: 100.0 mg/kg/injection, schedule: Q01DX001 (ip), vehicle: Klucel (hydroxypropylcellulose) (HPC) 100 % of control | dose: 200.0 mg/kg/injection, schedule: Q01DX001 (ip), vehicle: Klucel (hydroxypropylcellulose) (HPC) 100 % of control | dose: 400.0 mg/kg/injection, schedule: Q01DX001 (ip), vehicle: Klucel (hydroxypropylcellulose) (HPC) 108 % of control

CC(=O)N1CCN(C(C)=O)c2ccccc21
inactive: [1] 106 % of control | [2] 103 % of control | [3] 106 % of control

Cc1cccc(N=Nc2ccc(O)cc2)c1
inactive: [4] 100 % of control | [5] 97 % of control | [6] 101 % of control

O=c1cc[n]2c(n1)[O][Hg]2
inactive: dose: 5.0 mg/kg/injection, schedule: Q01DX001 (ip), vehicle: carboxymethylcellulose (CMC) 98 % of control | dose: 10.0 mg/kg/injection, schedule: Q01DX001 (ip), vehicle: carboxymethylcellulose (CMC) 98 % of control

Oc1cc(Cl)ccc1Cl
inactive: dose: 75.0 mg/kg/injection, schedule: Q01DX009 (ip), vehicle: saline 90 % of control | [7] 95 % of control | dose: 150.0 mg/kg/injection, schedule: Q01DX009 (ip), vehicle: saline 101 % of control | [8] 100 % of control | dose: 300.0 mg/kg/injection, schedule: Q01DX009 (ip), vehicle: saline 96 % of control | [9] 98 % of control

CC(=O)OC1COC(n2cnc3c(N)ncnc32)C(OC(C)=O)C1OC(C)=O (centres undefined)
inactive: [10] 100 % of control | [11] 97 % of control | [12] 100 % of control

CCN(CC)CCNCCN
inactive: dose: 12.5 mg/kg/injection, schedule: Q01DX009 (ip), vehicle: saline 107 % of control | dose: 25.0 mg/kg/injection, schedule: Q01DX009 (ip), vehicle: saline 111 % of control | dose: 50.0 mg/kg/injection, schedule: Q01DX009 (ip), vehicle: saline 101 % of control and 102 % of control | [7] 94 % of control | [8] 96 % of control

N#CC1C2CCC(C2)C1CCCNCCCC1C2CCC(C2)C1C#N (centres undefined)
inactive: dose: 100.0 mg/kg/injection, schedule: Q04DX002 (ip), vehicle: saline 97 % of control | dose: 200.0 mg/kg/injection, schedule: Q04DX002 (ip), vehicle: saline 104 % of control

C[C@@H]1CC2=CC(=O)CC[C@]2(C)[C@H]2CC[C@]3(C)[C@@H](O)CC[C@H]3[C@H]12
inactive: [13] 92 % of control | [14] 112 % of control | [15] 100 % of control

CC(C)(C)NC(=O)NCc1cccc(Cl)c1
inactive: [16] 100 % of control | [17] 107 % of control | [18] 96 % of control

CCOC(=O)c1c[nH]c(C)c1C
inactive: [1] 104 % of control | [2] 109 % of control | [3] 105 % of control

O=C1c2ccccc2C(=O)N1CCOc1ccc([N+](=O)[O-])cc1Cl
inactive: [19] 102 % of control | [1] 101 % of control | [2] 100 % of control

BrC12CCC(CC1)C1(Br)CCC2CC1
inactive: [11] 102 % of control | [7] 86 % of control | [12] 96 % of control | [8] 91 % of control | [20] 89 % of control | [9] 86 % of control

O=C1N=C2C=CC=CN2C(=O)C1Cc1ccccc1 (centres undefined)
inactive: [13] 90 % of control | [21] 98 % of control | [14] 89 % of control | [22] 94 % of control | [15] 96 % of control | [23] 99 % of control

CC(C)N(C(=O)Nc1ccccc1Cl)c1ccccc1
inactive: [4] 96 % of control | [1] 92 % of control | [5] 92 % of control | [2] 100 % of control | [6] 97 % of control | [3] 92 % of control

COc1ccc2[nH]c(-c3ccccc3)c(-c3ccccc3)c2c1
inactive: [13] 90 % of control | [21] 89 % of control | [22] 87 % of control | [23] 92 % of control

COc1cc(Cc2cnc(N)nc2N)cc(OC)c1OC
inactive: [10] 101 % of control | [11] 92 % of control | [12] 100 % of control | [20] 97 % of control

Oc1ccc(N=Cc2ccccn2)cc1
inactive: dose: 100.0 mg/kg/injection, schedule: Q01DX001 (ip), vehicle: carboxymethylcellulose (CMC) 96 % of control | dose: 200.0 mg/kg/injection, schedule: Q01DX001 (ip), vehicle: carboxymethylcellulose (CMC) 105 % of control | dose: 400.0 mg/kg/injection, schedule: Q01DX001 (ip), vehicle: carboxymethylcellulose (CMC) 98 % of control

CCC(c1ccc2cc(OC)ccc2c1)C(CC(=O)O)C(=O)OC (centres undefined)
inactive: [1] 100 % of control | [2] 96 % of control | [3] 91 % of control

COCC=C(C)C
inactive: dose: 50.0 mg/kg/injection, schedule: Q01DX009 (ip), vehicle: saline with Tween-80 106 % of control | [13] 92 % of control | [14] 95 % of control

Cc1ccc(S/N=C\c2ccccc2O)cc1
inactive: dose: 50.0 mg/kg/injection, schedule: Q04DX002 (ip), vehicle: Klucel (hydroxypropylcellulose) (HPC) 93 % of control | [16] 100 % of control | [17] 107 % of control and 91 % of control | [18] 91 % of control

COSc1ccc([N+](=O)[O-])cc1[N+](=O)[O-]
inactive: [21] 96 % of control | [22] 100 % of control | [23] 103 % of control

CC1(C)N=C(N)N=C(N)N1c1ccc(C(F)(F)F)cc1
inactive: dose: 25.0 mg/kg/injection, schedule: Q01DX001 (ip), vehicle: saline 107 % of control | [10] 117 % of control | [11] 103 % of control and 107 % of control

CN(C(=O)c1ccccc1)N(C)C(=O)c1ccccc1
inactive: dose: 25.0 mg/kg/injection, schedule: Q01DX009 (ip), vehicle: Klucel (hydroxypropylcellulose) (HPC) 106 % of control | dose: 50.0 mg/kg/injection, schedule: Q01DX009 (ip), vehicle: Klucel (hydroxypropylcellulose) (HPC) 95 % of control | [19] 98 % of control | [1] 110 % of control

CCc1c(C(OC)OC)[nH]c(=S)[nH]c1=O
inactive: [13] 94 % of control | [21] 100 % of control | [14] 100 % of control | [22] 100 % of control | [15] 94 % of control | [23] 105 % of control

CC1C[N-]CC(C)C1.CC1C[N-]CC(C)C1.CC1C[N-]CC(C)C1.CC1C[N-]CC(C)C1.[Cl][Rh][Cl] (centres undefined)
inactive: dose: 1.5 mg/kg/injection, schedule: Q01DX009 (ip), vehicle: gum acacia 98 % of control | dose: 3.0 mg/kg/injection, schedule: Q01DX009 (ip), vehicle: gum acacia 96 % of control | dose: 6.0 mg/kg/injection, schedule: Q01DX009 (ip), vehicle: gum acacia 100 % of control | dose: 12.5 mg/kg/injection, schedule: Q04DX003 (ip), vehicle: gum acacia 100 % of control | dose: 25.0 mg/kg/injection, schedule: Q04DX003 (ip), vehicle: gum acacia 93 % of control
